Assay results from the supplement of paper PMC10307832.

Columns and labels:
Assay in all cases: relative viability (nuclei count vs DMSO), 5 days (fraction); higher = more cells survive
[1] = compound: OCc1c[nH]c2ccccc12 [Indole-3-carbinol] + CC(=O)c1c(C)c2cnc(Nc3ccc(N4CCNCC4)cn3)nc2n(C2CCCC2)c1=O [Palbociclib] (partner 0.5 µM)
In short: (§1)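 The day after seeding in 1536-well plates, lung cancer cell lines were treated by pin tool with a single drug, or with a fixed anchor-drug dose together with five library-drug doses (not always all listed) in √10 steps. After 5 days, a combined fix-and-stain solution (final 0.05% Triton X-100, 1% formaldehyde, 1 ug/ml Hoechst) was added. Nuclei counted on 4× images gave relative viability as treated counts over vehicle counts, reported as the median of duplicate plates.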

[2] = compound: OCc1c[nH]c2ccccc12 [Indole-3-carbinol] + CC(C)C[C@H](NC(=O)[C@H](Cc1ccccc1)NC(=O)c1cnccn1)B(O)O [Bortezomib] (partner 0.002 µM)
In short: as §1

[3] = compound: OCc1c[nH]c2ccccc12 [Indole-3-carbinol] + COc1cc2c(Oc3ccc(NC(=O)C4(C(=O)Nc5ccc(F)cc5)CC4)cc3F)ccnc2cc1OCCCN1CCOCC1 [Foretinib] (partner 0.25 µM)
In short: as §1

[4] = compound: OCc1c[nH]c2ccccc12 [Indole-3-carbinol] + Nc1nc2[nH]cc(CCc3ccc(C(=O)N[C@@H](CCC(=O)O)C(=O)O)cc3)c2c(=O)[nH]1 [Pemetrexed] (partner 0.2 µM)
In short: as §1

[5] = compound: OCc1c[nH]c2ccccc12 [Indole-3-carbinol] + Nc1ncn([C@H]2C[C@H](O)[C@@H](CO)O2)c(=O)n1 [Decitabine] (partner 2 µM)
In short: as §1

Cell Line	relative viability ([1]; first compound 0.253 µM)	relative viability ([1]; first compound 0.8 µM)	relative viability ([1]; first compound 2.53 µM)	relative viability ([1]; first compound 8 µM)	relative viability ([2]; first compound 0.253 µM)	relative viability ([2]; first compound 0.8 µM)	relative viability ([2]; first compound 2.53 µM)	relative viability ([2]; first compound 8 µM)	relative viability ([3]; first compound 0.253 µM)	relative viability ([3]; first compound 0.8 µM)	relative viability ([3]; first compound 2.53 µM)	relative viability ([3]; first compound 8 µM)	relative viability ([4]; first compound 0.253 µM)	relative viability ([4]; first compound 0.8 µM)	relative viability ([4]; first compound 2.53 µM)	relative viability ([4]; first compound 8 µM)	relative viability ([5]; first compound 0.253 µM)	relative viability ([5]; first compound 0.8 µM)	relative viability ([5]; first compound 2.53 µM)	relative viability ([5]; first compound 8 µM)
EKVX	0.384	0.36	0.386	0.452	1.24	1.1	1.12	1.04	0.859	0.97	0.844	0.829	0.4	0.46	0.413	0.452	0.326	0.353	0.326	0.381
EMC-BAC-2	0.507	0.519	0.507	0.489	0.994	1.01	1.08	1.02	1.02	1.01	0.917	0.923	0.393	0.441	0.439	0.448	0.953	0.96	0.957	0.889
EPLC-272H	0.325	0.376	0.318	0.334	1.27	0.925	0.985	0.837	0.67	0.72	0.724	0.709	0.34	0.349	0.36	0.349	0.364	0.359	0.388	0.356
H3255	0.302	0.32	0.347	0.307	0.899	0.852	0.748	0.732	0.985	0.669	1.09	0.917	0.547	0.54	0.637	0.625	0.658	0.561	0.517	0.68
HARA	0.303	0.249	0.281	0.232	1.2	1.06	1.11	1.06	0.777	0.932	1.09	0.809	0.267	0.239	0.243	0.242	0.566	0.549	0.637	0.47
HCC-15	0.804	0.773	0.733	0.724	1.08	1.08	1.1	1.06	1.04	1.14	1.07	1.01	0.214	0.226	0.205	0.235	0.66	0.682	0.64	0.664
HCC-44	0.954	1.03	0.902	0.882	0.911	1.03	0.888	0.869	–	–	–	–	0.679	0.659	0.694	0.541	0.983	0.986	0.971	0.91
HCC-78	0.486	0.498	0.471	0.462	0.416	0.51	0.403	0.554	0.558	0.526	0.592	0.523	0.89	0.947	0.929	0.891	0.681	0.715	0.676	0.741
